In patent publication US8975232B2, “Macrocyclic kinase inhibitors and uses thereof” (President and Fellows of Harvard College, priority 2010, dated 2015):
pIC50: −log10 of the molar value.

Target: Src kinase (Homo sapiens, UniProt P12931)
Assay: Z'-LYTE kinase assay (Invitrogen), Src
Assay type: biochemical
Set-up: full-length kinase in the Z-LYTE assay vs. kinase domain in the current study; purchased Millipore
Conditions: for pIC50: Z'-LYTE, ATP near KM; for Src kinase inhibition (in words): non-DNA-linked compound
Description: Nine macrocycles enriched in the Src selection (FIG. 5) and synthesized as described above were assayed in vitro for the ability to inhibit Src kinase activity. Kinase activity was assayed in the presence of varying concentrations of macrocycle using the FRET-based Z′-LYTE assay (Invitrogen).
Src IC50 determinations and single-point inhibition measurements were performed using Invitrogen's Z′-LYTE Tyr 02 assay kit according to the manufacturer's protocols. All kinase assays were performed at ATP concentrations near KM,ATP values, except where noted otherwise. Active human Src kinase was obtained from Millipore. For kinome profiling and IC50 determinations against non-Src kinases, compounds were submitted to Invitrogen's SelectScreen Kinase Profiling Service.

Sequence of Src kinase (P12931 whole entry): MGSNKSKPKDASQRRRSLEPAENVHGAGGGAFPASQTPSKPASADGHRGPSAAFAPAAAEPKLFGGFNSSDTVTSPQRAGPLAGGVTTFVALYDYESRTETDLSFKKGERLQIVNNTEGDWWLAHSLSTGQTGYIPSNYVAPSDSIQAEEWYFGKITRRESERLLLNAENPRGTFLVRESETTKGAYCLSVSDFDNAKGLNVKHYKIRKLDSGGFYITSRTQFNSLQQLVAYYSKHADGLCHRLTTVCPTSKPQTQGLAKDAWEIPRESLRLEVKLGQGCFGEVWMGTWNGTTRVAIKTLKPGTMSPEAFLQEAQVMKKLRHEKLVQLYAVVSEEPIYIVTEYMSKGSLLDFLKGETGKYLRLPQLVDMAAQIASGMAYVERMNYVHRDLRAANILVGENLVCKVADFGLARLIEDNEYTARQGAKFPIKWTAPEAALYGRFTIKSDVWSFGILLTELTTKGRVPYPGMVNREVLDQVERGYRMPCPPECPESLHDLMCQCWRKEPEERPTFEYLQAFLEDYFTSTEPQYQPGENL

Compound | pIC50 | also measured
NC(=O)[C@@H]1CCCCNC(=O)[C@H](CCCNC(=O)c2cnccn2)NC(=O)[C@H](Cc2ccco2)NC(=O)[C@H](CC2CC2)NC(=O)/C=C/C(=O)N1 [trans-A11-B1-C5-D5] | < 4.00 | –
NC(=O)[C@@H]1CCCCNC(=O)[C@H](CCCNC(=O)c2cnccn2)NC(=O)[C@H](Cc2ccco2)NC(=O)[C@H](CC2CC2)NC(=O)/C=C\C(=O)N1 [cis-A11-B1-C5-D5] | 4.07 | –
NC(=O)[C@@H]1CCNC(=O)[C@H](Cc2ccc([N+](=O)[O-])cc2)NC(=O)[C@H](Cc2ccco2)NC(=O)[C@H](CC2CC2)NC(=O)/C=C\C(=O)N1 [cis-A10-B1-C5-D7] | 5.05 | –
NC(=O)[C@@H]1CCNC(=O)[C@H](CCCNC(=O)c2cnccn2)NC(=O)[C@H](Cc2ccco2)NC(=O)[C@H](CC2CC2)NC(=O)/C=C/C(=O)N1 [trans-A11-B1-C5-D7] | 4.92 | –
NC(=O)[C@@H]1CCNC(=O)[C@H](CCCNC(=O)c2cnccn2)NC(=O)[C@H](CC2CCCCC2)NC(=O)[C@H](CC2CC2)NC(=O)/C=C/C(=O)N1 [trans-A11-B8-C5-D7] | < 4.00 | –
NC(=O)[C@@H]1CCNC(=O)[C@H](CCCNC(=O)c2cnccn2)NC(=O)[C@H](CC2CCCCC2)NC(=O)[C@H](C/C=C/c2ccccc2)NC(=O)/C=C/C(=O)N1 [trans-A11-B8-C10-D7] | < 4.00 | –
NC(=O)[C@@H]1CCCNC(=O)[C@H](Cc2ccc([N+](=O)[O-])cc2)NC(=O)[C@H](Cc2ccco2)NC(=O)[C@H](CC2CC2)NC(=O)C=CC(=O)N1 [Macrocycle A10-B1-C5-D6] | – | difference in potency between cis and trans stereoisomers (Src): ~10 fold
NC(=O)[C@@H]1CCCNC(=O)[C@H](Cc2ccccc2)NC(=O)[C@H](Cc2ccco2)NC(=O)[C@H](CC2CC2)NC(=O)/C=C/C(=O)N1 [trans-Phe-B1-C5-D6] | – | Src kinase inhibition (in words): abolished Src inhibition
C=CC[C@@H]1NC(=O)/C=C/C(=O)N[C@H](C(N)=O)CCNC(=O)[C@H](CCCNC(=O)c2cnccn2)NC(=O)[C@H](Cc2ccco2)NC1=O [trans-A11-B1-C3-D7] | 4.32 | –
NC(=O)[C@@H]1CCNC(=O)[C@H](CCCNC(=O)c2cnccn2)NC(=O)[C@H](Cc2ccco2)NC(=O)[C@H](C/C=C/c2ccccc2)NC(=O)/C=C/C(=O)N1 [trans-A11-B1-C10-D7] | 4.68 | –
CS(=O)(=O)CC[C@@H]1NC(=O)[C@H](Cc2ccco2)NC(=O)[C@H](CC2CC2)NC(=O)C=CC(=O)N[C@H](C(N)=O)CCNC1=O [Macrocycle A9-B1-C5-D7] | – | Src kinase inhibition (in words): did not inhibit Src
NC(=O)[C@@H]1CCNC(=O)[C@H](Cc2ccc([N+](=O)[O-])cc2)NC(=O)[C@H](Cc2ccco2)NC(=O)[C@H](CC2CC2)NC(=O)/C=C/C(=O)N1 [trans-A10-B1-C5-D7] | 5.82 | –
C=CC[C@@H]1NC(=O)/C=C\C(=O)N[C@H](C(N)=O)CCNC(=O)[C@H](CCCNC(=O)c2cnccn2)NC(=O)[C@H](Cc2ccco2)NC1=O [cis-A11-B1-C3-D7] | 5.00 | –
CS(=O)(=O)CC[C@@H]1NC(=O)[C@H](Cc2ccco2)NC(=O)[C@H](CC2CC2)NC(=O)/C=C/C(=O)N[C@H](C(N)=O)CCNC1=O [trans-A9-B1-C5-D7] | < 4.00 | –
NC(=O)[C@@H]1CCNC(=O)[C@H](CCCNC(=O)c2cnccn2)NC(=O)[C@H](Cc2ccco2)NC(=O)[C@H](C/C=C/c2ccccc2)NC(=O)/C=C\C(=O)N1 [cis-A11-B1-C10-D7] | 5.15 | –
NC(=O)[C@@H]1CCNC(=O)[C@H](CCCNC(=O)c2cnccn2)NC(=O)[C@H](CC2CCCCC2)NC(=O)[C@H](CC2CC2)NC(=O)/C=C\C(=O)N1 [cis-A11-B8-C5-D7] | 4.44 | –
